Laboratory results as given in paper PMC11036874, “In vitro characterization of [^125I]HY-3-24, a selective ligand for the dopamine D3 receptor” (Frontiers in Neuroscience, 2024).

Tests used:
human D3R = human D3R (Homo sapiens, UniProt P35462); test: D3R radioligand binding assay with [125I]IABN; set-up: expressed in transfected cells; host or cells: HEK293
Description: The dopamine receptor binding assay was performed according to previous studies ([Luedtke et al., 2000]; [Vangveravong et al., 2006]; [Reilly et al., 2017]), and human D2R or D3R or D4 transfected HEK293 cells were used for dopamine receptor binding assay. The cells were grown in Dulbecco’s Modified Eagle Medium including 10% FBS, 0.1% Penn Strep, […] of geneticin (G418) for human D2R or D3R transfected HEK293 cells, and […] of puromycin for human D4 HEK293 cells at 5% CO2, 37°C. The cells were collected by centrifuge (6,000 × g, 10 min), and the supernatant was discarded. Cold homogenization buffer (50 mM Na Hepes, 0.1 mM EDTA, 1 mM DTT, pH 7.4) was added into the pellet and homogenized by a polytron (Brinkmann Instruments, Westbury, NY, United States), and centrifuged at 40,000 × g for 10 min. This process was repeated two more times to get final pellet, and the membranes were then resuspended with HB buffer including 5 mM MgCl2 and stored at −80°C until use.
HY-3-24 was prepared in 10^−5 to 10^−11 M concentration range with assay buffer (50 mM Tris–HCl, 150 mM NaCl, 10 mM EDTA, pH 7.5). Membrane homogenates (5–15 μg) and [^125I]IABN (approximately 0.5 nM) was added into serial dilutions of the compound and incubated at 37°C, for 60 min. Total binding volume was 150 μL, and 20 μM of (+)-butaclamol was used to define non-specific binding. Cold buffer (10 mM Tris–HCl, 150 mM NaCl, pH 7.5) was added into the reaction tube to terminate binding assay, and mixture was quickly filtered through a Schleicher and Schuell No.32 filter (GE Heathcare Bio-Sciences, Pittsburgh, PA, United States). The membrane was washed with cold buffer (three times), and collected filters were counted on a gamma counter (GMI, Minnesota, United States). The results were analyzed by nonlinear regression, and the data were reported mean ± SEM values by three independent experiments.

serotonin 5-HT6 = molecular target: T1, serotonin 5-HT6 (Homo sapiens, UniProt P50406); test: PDSP binding screen; conditions: HCl salt
T1 construct: Psychoactive Drug Screening Program (PDSP)
Description: (§1) The binding of HY-3-24 to various GPCRs was investigated through comprehensive screening by Psychoactive Drug Screening Program (PDSP) (Supplementary Table S1) ([Besnard et al., 2012]). These GPCRs included major neurotransmitter receptors family (e.g., dopamine, serotonin, histamine, opioid, muscarinic, adrenergic, sigma receptors, ɤ-amino-butyric acid type A, and benzodiazepine receptors) and transporters (e.g., dopamine, norepinephrine, and serotonin transporter).

dopamine D4 = dopamine D4 (Homo sapiens, UniProt P21917); test: PDSP binding screen; conditions: HCl salt
Description: as §1

adrenergic alpha2A = molecular target: T2, adrenergic alpha2A (Homo sapiens, UniProt P08913); test: PDSP binding screen; conditions: HCl salt
T2 construct: Psychoactive Drug Screening Program (PDSP)
Description: as §1

[1] = molecular target: ɤ-aminobutyric acid type A; test: PDSP binding screen; conditions: HCl salt
Description: as §1

serotonin transporter = molecular target: T3, serotonin transporter (Homo sapiens, UniProt P31645); test: PDSP binding screen; conditions: HCl salt
T3 construct: Psychoactive Drug Screening Program (PDSP)
Description: as §1

sigma1 = molecular target: T4, sigma1 (Homo sapiens, UniProt Q99720); test: PDSP binding screen; conditions: HCl salt
T4 construct: Psychoactive Drug Screening Program (PDSP)
Description: as §1

dopamine D1 = dopamine D1 (Homo sapiens, UniProt P21728); test: PDSP binding screen; conditions: HCl salt
Description: as §1

adrenergic beta2 = molecular target: T5, adrenergic beta2 (Homo sapiens, UniProt P07550); test: PDSP binding screen; conditions: HCl salt
T5 construct: Psychoactive Drug Screening Program (PDSP)
Description: as §1

histamine H1 = molecular target: T6, histamine H1 (Homo sapiens, UniProt P35367); test: PDSP binding screen; conditions: HCl salt
T6 construct: Psychoactive Drug Screening Program (PDSP)
Description: as §1

[2] = molecular target: T7, norepinephrine transporter (Homo sapiens, UniProt P23975); test: PDSP binding screen; conditions: HCl salt
T7 construct: Psychoactive Drug Screening Program (PDSP)
Description: as §1

adrenergic alpha2C = molecular target: T8, adrenergic alpha2C (Homo sapiens, UniProt P18825); test: PDSP binding screen; conditions: HCl salt
T8 construct: Psychoactive Drug Screening Program (PDSP)
Description: as §1

benzodiazepine receptor = test: PDSP binding screen; conditions: HCl salt
Description: as §1

serotonin 5-HT2B = serotonin 5-HT2B (Homo sapiens, UniProt P41595); test: PDSP binding screen; conditions: HCl salt
Description: as §1

serotonin 5-HT1D = serotonin 5-HT1D (Homo sapiens, UniProt P28221); test: PDSP binding screen; conditions: HCl salt
Description: as §1

serotonin 5-HT2A = serotonin 5-HT2A (Homo sapiens, UniProt P28223); test: PDSP binding screen; conditions: HCl salt
Description: as §1

Muscarinic M3 = molecular target: T9, Muscarinic M3 (Homo sapiens, UniProt P20309); test: PDSP binding screen; conditions: HCl salt
T9 construct: Psychoactive Drug Screening Program (PDSP)
Description: as §1

Muscarinic M5 = molecular target: T10, Muscarinic M5 (Homo sapiens, UniProt P08912); test: PDSP binding screen; conditions: HCl salt
T10 construct: Psychoactive Drug Screening Program (PDSP)
Description: as §1

sigma2 = molecular target: T11, sigma2 (Homo sapiens, UniProt Q5BJF2); test: PDSP binding screen; conditions: HCl salt
T11 construct: Psychoactive Drug Screening Program (PDSP)
Description: as §1

adrenergic alpha2B = molecular target: T12, adrenergic alpha2B (Homo sapiens, UniProt P18089); test: PDSP binding screen; conditions: HCl salt
T12 construct: Psychoactive Drug Screening Program (PDSP)
Description: as §1

[3] = molecular target: benzodiazepine rat brain site; test: PDSP binding screen; conditions: HCl salt
Description: as §1

[4] = molecular target: T13, dopamine active transporter (Homo sapiens, UniProt Q01959); test: PDSP binding screen; conditions: HCl salt
T13 construct: Psychoactive Drug Screening Program (PDSP)
Description: as §1

Muscarinic M4 = molecular target: T14, Muscarinic M4 (Homo sapiens, UniProt P08173); test: PDSP binding screen; conditions: HCl salt
T14 construct: Psychoactive Drug Screening Program (PDSP)
Description: as §1

serotonin 5-HT3 = serotonin 5-HT3 (Homo sapiens, UniProt P46098); test: PDSP binding screen; conditions: HCl salt
Description: as §1

dopamine D2 = dopamine D2 (Homo sapiens, UniProt P14416); test: PDSP binding screen; conditions: HCl salt, [3H]N-methylspiperone
Description: as §1

dopamine D3 = dopamine D3 (Homo sapiens, UniProt P35462); test: PDSP binding screen; conditions: HCl salt, [3H]N-methylspiperone
Description: as §1

opioid KOR = molecular target: T15, opioid KOR (Homo sapiens, UniProt P41145); test: PDSP binding screen; conditions: HCl salt
T15 construct: Psychoactive Drug Screening Program (PDSP)
Description: as §1

serotonin 5-HT2C = serotonin 5-HT2C (Homo sapiens, UniProt P28335); test: PDSP binding screen; conditions: HCl salt
Description: as §1

[5] = [125I]IABN, human D3R transfected HEK293 cell membranes, mean ± SEM of three experiments

human D3R, sequence (P35462 whole entry): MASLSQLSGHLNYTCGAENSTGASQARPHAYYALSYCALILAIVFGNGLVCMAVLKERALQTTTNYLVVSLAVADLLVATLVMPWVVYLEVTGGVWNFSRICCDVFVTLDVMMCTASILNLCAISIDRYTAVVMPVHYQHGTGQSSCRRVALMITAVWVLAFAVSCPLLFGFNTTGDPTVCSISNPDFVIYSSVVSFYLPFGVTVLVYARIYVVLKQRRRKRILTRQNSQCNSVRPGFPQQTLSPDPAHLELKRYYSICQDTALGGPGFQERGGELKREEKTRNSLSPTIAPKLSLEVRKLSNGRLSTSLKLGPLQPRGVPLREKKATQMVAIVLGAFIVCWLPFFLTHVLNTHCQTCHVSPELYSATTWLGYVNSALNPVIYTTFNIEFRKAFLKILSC
dopamine D1, sequence (P21728 whole entry): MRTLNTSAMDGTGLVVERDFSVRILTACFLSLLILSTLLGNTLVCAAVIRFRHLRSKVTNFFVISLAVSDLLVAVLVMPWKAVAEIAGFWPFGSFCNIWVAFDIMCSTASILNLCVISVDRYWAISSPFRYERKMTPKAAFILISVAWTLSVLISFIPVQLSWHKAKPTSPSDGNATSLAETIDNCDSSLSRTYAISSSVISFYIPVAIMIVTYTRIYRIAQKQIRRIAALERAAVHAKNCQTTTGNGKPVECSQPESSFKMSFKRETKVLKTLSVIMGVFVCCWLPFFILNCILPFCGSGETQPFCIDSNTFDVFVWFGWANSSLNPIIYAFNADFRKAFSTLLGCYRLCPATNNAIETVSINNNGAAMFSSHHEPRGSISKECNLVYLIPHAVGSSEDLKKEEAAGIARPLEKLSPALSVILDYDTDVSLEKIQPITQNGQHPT
serotonin 5-HT2C, sequence (P28335 33-458): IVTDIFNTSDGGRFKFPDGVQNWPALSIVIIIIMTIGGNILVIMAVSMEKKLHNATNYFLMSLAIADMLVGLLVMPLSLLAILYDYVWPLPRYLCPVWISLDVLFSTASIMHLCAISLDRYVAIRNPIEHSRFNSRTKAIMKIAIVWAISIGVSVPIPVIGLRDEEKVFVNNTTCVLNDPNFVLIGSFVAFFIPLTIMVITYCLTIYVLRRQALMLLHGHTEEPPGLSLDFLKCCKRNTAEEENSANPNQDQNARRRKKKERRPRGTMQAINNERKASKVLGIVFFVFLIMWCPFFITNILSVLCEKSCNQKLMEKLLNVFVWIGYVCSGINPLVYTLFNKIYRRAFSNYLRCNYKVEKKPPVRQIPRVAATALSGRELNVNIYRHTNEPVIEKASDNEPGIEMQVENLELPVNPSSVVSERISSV
T13 sequence (Q01959 whole entry): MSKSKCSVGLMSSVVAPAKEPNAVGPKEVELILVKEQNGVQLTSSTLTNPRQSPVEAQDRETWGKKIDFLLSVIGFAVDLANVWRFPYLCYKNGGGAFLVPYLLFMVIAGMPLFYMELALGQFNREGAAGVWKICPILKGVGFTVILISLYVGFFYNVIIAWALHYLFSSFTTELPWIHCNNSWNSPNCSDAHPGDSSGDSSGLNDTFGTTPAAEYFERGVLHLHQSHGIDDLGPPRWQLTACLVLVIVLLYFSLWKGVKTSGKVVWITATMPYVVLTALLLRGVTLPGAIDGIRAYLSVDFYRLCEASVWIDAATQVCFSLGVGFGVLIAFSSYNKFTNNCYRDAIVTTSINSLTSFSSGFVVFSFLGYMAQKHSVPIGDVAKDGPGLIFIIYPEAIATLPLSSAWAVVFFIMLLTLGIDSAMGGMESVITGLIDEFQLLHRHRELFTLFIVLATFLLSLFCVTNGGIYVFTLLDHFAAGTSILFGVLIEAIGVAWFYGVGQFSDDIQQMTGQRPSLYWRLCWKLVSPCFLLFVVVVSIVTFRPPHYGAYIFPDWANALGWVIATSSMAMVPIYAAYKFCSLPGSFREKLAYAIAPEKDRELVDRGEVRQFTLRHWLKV
T9 sequence (P20309 whole entry): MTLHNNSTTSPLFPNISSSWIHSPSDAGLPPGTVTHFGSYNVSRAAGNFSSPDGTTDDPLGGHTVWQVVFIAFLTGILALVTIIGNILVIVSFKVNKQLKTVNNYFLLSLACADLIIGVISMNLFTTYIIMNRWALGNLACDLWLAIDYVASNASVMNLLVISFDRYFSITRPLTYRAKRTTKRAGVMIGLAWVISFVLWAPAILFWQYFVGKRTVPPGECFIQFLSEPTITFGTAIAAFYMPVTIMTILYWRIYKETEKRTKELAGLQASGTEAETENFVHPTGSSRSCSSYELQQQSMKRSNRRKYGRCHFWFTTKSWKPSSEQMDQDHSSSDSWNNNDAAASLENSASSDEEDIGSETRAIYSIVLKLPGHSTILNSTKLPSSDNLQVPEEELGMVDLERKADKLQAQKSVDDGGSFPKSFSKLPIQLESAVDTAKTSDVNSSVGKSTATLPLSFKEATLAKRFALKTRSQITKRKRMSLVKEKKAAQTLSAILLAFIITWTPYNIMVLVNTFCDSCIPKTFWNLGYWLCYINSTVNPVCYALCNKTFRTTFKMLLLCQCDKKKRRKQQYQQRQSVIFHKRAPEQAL
serotonin 5-HT3, sequence (P46098 24-478): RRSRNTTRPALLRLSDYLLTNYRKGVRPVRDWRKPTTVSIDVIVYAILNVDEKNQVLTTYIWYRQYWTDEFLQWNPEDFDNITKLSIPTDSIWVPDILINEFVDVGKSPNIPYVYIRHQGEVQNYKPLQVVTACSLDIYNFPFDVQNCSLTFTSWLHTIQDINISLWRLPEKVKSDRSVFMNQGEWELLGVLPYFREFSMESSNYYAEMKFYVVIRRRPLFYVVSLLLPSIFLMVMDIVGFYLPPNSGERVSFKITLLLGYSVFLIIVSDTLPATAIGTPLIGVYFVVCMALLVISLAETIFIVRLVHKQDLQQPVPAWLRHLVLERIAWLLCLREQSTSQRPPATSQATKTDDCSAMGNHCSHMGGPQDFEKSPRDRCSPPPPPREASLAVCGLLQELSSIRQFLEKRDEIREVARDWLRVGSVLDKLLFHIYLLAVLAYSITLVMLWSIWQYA
dopamine D2, sequence (P14416 whole entry): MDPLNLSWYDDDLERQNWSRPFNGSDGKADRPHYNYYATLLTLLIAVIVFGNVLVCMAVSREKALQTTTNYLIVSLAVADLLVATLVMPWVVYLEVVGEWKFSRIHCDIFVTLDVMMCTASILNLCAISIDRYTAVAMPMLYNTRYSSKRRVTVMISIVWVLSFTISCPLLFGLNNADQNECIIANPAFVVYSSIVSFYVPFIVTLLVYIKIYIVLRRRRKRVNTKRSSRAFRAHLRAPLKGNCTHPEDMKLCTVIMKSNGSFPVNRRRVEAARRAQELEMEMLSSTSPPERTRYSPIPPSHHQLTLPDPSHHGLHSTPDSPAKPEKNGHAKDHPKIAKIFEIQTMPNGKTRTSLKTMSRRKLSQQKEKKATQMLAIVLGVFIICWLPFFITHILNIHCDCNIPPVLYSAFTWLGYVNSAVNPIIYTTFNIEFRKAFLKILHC
T12 sequence (P18089 whole entry): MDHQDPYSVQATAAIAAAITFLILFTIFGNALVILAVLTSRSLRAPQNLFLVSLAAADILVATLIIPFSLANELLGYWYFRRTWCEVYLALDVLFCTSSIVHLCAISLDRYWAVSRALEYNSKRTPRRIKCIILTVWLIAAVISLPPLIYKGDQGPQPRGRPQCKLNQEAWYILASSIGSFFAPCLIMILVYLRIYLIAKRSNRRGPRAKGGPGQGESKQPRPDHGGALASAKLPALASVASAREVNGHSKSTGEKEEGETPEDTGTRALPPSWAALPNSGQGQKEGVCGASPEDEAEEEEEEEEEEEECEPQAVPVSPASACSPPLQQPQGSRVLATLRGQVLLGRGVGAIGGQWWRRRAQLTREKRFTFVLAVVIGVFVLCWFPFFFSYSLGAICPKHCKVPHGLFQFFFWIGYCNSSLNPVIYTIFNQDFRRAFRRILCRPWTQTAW
T10 sequence (P08912 whole entry): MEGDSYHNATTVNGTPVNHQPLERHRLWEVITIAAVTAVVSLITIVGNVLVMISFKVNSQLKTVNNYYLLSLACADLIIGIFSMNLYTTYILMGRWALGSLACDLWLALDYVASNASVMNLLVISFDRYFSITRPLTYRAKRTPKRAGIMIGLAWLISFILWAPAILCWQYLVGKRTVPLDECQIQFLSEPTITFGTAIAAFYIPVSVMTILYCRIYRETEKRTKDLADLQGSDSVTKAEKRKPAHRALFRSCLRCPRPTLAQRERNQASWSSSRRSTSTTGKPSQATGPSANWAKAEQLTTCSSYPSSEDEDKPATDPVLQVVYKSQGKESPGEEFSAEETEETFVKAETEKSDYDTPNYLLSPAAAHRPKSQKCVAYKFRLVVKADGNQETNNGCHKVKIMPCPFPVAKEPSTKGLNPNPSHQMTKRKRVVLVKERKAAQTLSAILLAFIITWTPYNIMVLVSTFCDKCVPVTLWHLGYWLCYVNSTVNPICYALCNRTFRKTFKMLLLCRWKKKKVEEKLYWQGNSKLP
T14 sequence (P08173 whole entry): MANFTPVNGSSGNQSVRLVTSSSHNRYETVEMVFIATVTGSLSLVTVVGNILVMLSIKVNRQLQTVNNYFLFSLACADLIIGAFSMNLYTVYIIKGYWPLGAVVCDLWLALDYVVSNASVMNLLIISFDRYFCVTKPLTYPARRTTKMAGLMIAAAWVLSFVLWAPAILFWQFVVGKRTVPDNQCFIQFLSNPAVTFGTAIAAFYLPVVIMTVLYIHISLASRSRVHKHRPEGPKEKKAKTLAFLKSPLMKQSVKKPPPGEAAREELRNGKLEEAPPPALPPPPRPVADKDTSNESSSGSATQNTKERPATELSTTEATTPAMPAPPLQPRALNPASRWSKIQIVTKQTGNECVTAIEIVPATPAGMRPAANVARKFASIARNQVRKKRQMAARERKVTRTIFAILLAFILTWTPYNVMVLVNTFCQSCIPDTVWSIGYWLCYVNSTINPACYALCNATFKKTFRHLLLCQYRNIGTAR
dopamine D3, sequence (P35462 whole entry): as the sequence (P35462 whole entry) above

CCN(CCCNC(=O)c1ccc(-c2ccncc2)cc1)CCNC(=O)c1cc(I)cc(OC)c1OC [HY-3-24, N-(2-(Ethyl(3-(4-(pyridin-4-yl)benzamido)propyl)amino)ethyl)-5-iodo-2,3-dimethoxybenzamide]
Ki (human D3R; [5]): 0.67 ± 0.11 nM
Ki D3R (human D3R; [5]): sub-nM affinity
selectivity for D3R vs. D2R (human D3R; from Ki values, [125I]IABN): ~ 129 fold
D2/D3 ratio (human D3R; ratio of Ki D2R to Ki D3R): 129
Ki (serotonin 5-HT6): 1040 nM
Ki (dopamine D4): 1860 nM
Ki (adrenergic alpha2A): 2150 nM
Ki [1]: 1120 nM
Ki (serotonin transporter): 677 nM
Ki (sigma1): 1950 nM
Ki D1 (dopamine D1): N.A. (not active, less than 50% inhibition in primary binding assays at 10 µM)
Ki (adrenergic beta2): 5830 nM
Ki (histamine H1): 244 nM
Ki [2]: 5950 nM
Ki (adrenergic alpha2C): 1900 nM
Ki (benzodiazepine receptor): 5640 nM
Ki (serotonin 5-HT2B): 38 nM
Ki (serotonin 5-HT1D): 1690 nM
Ki (serotonin 5-HT2A): 310 nM
Ki (Muscarinic M3): 1780 nM
Ki (Muscarinic M5): 118 nM
Ki (sigma2): 2310 nM
Ki (adrenergic alpha2B): 1070 nM
Ki benzodiazepine rat brain site [3]: N.A. (not active, less than 50% inhibition in primary binding assays at 10 µM)
Ki [4]: 1130 nM
Ki (Muscarinic M4): 544 nM
Ki (serotonin 5-HT3): 904 nM
Ki (dopamine D2): 43 nM
Ki (dopamine D3): 1.2 nM
Ki (opioid KOR): 1550 nM
Ki (serotonin 5-HT2C): 613 nM
